Laboratory results: patent publication US20080200473A1, “Imidazo [1,2-a]Pyridine Compounds, Compositions, Uses and Methods Thereto” (Ferrer Internacional, S.A., priority 2004, published 2008)

Columns and labels:
α2-GABAA receptor = assay: Ligand-binding assay, competitive with radiolabeled flumazenil, spinal cord membranes; settings: Affinity for α2-GABAA receptor, rat spinal cord membranes, radiolabeled flumazenil 1 nM; for % Inhibition 10^−5M: 10^-5M test compound; for % Inhibition 10^−7M: 10^-7M test compound
Protocol: (§1) Ligand-binding assays. Determination of the affinity of test compounds for α1- and α2-GABAA receptor.
(§2) Male Sprague-Dawley rats weighing 200-250 g at the time of experiment were used. After decapitation of the animal, the cerebellum (tissue that mostly contains α1-GABAA receptor) and spinal cord (tissue that mostly contains α2-GABAA receptor) were removed. The membranes were prepared according to the method by J. Lameh et al. (Prog. Neuro-Psychopharmacol. Biol. Psychiatry, 24, 979-991, 2000) and H. Noguchi et al. (Eur. J. Pharm., 434, 21-28, 2002). Once the tissues weighed, they were suspended in 50 mM Tris.HCl (pH 7.4), 1:40 (w/v), or sucrose 0.32 M in the case of spinal cord, homogenized and then centrifuged at 20,000 g for 10 min at 7° C. twice. The resulting pellet was resuspended under the same conditions and centrifuged again. The pellet was finally resuspended on a minimum volume and kept at −80° C. overnight. On the next day, the process was repeated until the final pellet was resuspended at a ratio of 1:10 (w/v) in the case of cerebellum and at a ratio of 1:5 (w/v) in the case of spinal cord.
(§3) Affinity was determined by competitive tests using radiolabeled flumazenil as ligand. The tests were performed according to the methods described by S. Arbilla et al. (Eur. J. Pharmacol., 130, 257-263, 1986); and Y. Wu et al. (Eur. J. Pharmacol., 278, 125-132, 1995) using 96-well microtiter plates. The membranes containing the study receptors, flumazenil (radiolabeling at a final concentration of 1 nM) and ascending concentrations of test compounds (in a total volume of 230 μL in 50 mM [ph 7.4] Tris.HCl buffer) were incubated. Simultaneously, the membranes were only incubated with the radiolabeled flumazenil (total binding, 100%) and in the presence of an elevated concentration of unradiolabeled flumazenil (non-specific binding, % estimation of radiolabeled ligand). The reactions started on adding the radiolabeled ligand followed by incubation for 60 minutes at 4° C. At the end of the incubation period, 200 μL of reaction were transferred to a multiscreen plate (Millipore) and filtered using a vacuum manifold and then washed three times with cold test buffer. The multiscreen plates were equipped with a GF/B filter that retained the membranes containing the receptors and the radiolabeled ligand which has been bound to the receptors. After washing, the plates were left till dry. Once dried, scintillation liquid was added and left under stirring overnight. The next day the plates were counted using a Perkin-Elmer Microbeta scintillation counter.
(§4) For analysis of the results the percentage of specific binding for every concentration of test compound was calculated as follows:
(§5) % specific binding=(X−N/T−N)×100
(§6) where, X: amount of bound ligand for every concentration of compound. T: total binding, maximum amount bound to the radiolabeled ligand. N: non-specific binding, amount of radiolabeled ligand bound in a non-specific way irrespective of the receptor used.
(§7) Every concentrations of compound were tested in triplicate and their mean values were used to determine the experimental values of % specific binding versus the concentration of compound. Affinity data are expressed as % inhibition at 10^-5M and 10^-7M concentrations.

mice = assay: In vivo predictive sedation-hypnosis test (inhibition of traveled distance); parameters: species or system mouse; settings: male CD1 mice; single equimolecular intraperitoneal doses; traveled distance over 30 min after dosing (first 5 min discarded) versus control
Protocol: In vivo determination of predictive sedative-hypnotic action.
The in vivo effects of these compounds were assessed by a predictive sedation-hypnosis test in mice (D. J. Sanger et al., Eur. J. Pharmacol., 313, 35-42, 1996; and G. Griebel et al., Psychopharmacology, 146, 205-213, 1999).
Groups of 5-8 male CD1 mice, weighing 22-26 g at the time of test, were used. The test compounds were administered in single equimolecular intraperitoneal doses, suspended in 0.25% agar with one drop of Tween in a volume of 10 mL/kg. Control animals received the vehicle alone. Using a Smart System (Panlab, S. L., Spain) the traveled distance in cm is recorded for each mouse at 5-min intervals during a period of 30 minutes after dosing. The inhibition percentage of traveled distance of treated animals versus control animals (the first 5 min were discarded) was calculated.

α1-GABAA receptor = assay: Ligand-binding assay, competitive with radiolabeled flumazenil, cerebellum membranes; settings: Affinity for α1-GABAA receptor, rat cerebellum membranes, radiolabeled flumazenil 1 nM; for % Inhibition 10^−5M: 10^-5M test compound; for % Inhibition 10^−7M: 10^-7M test compound
Protocol: as §1, §2, §3, §4, §5, §6, §7

SMILES	% Inhibition 10^−5M (α2-GABAA receptor) [%]	% Inhibition 10^−7M (α2-GABAA receptor) [%]	% Inhibition Motor Activity (mice) [%]	% Inhibition 10^−5M (α1-GABAA receptor) [%]	% Inhibition 10^−7M (α1-GABAA receptor) [%]
Cc1ccc(-c2nc3ccc(C)cn3c2CNC(=O)c2cc(C)on2)cc1 [Example 72, 5-Methyl-isoxazole-3-carboxylic acid (6-methyl-2-p-tolyl-imidazo[1,2-a]pyridin-3-ylmethyl)-amide]	95	33.1	73.81	99.8	73.4
Cc1ccc(-c2nc3ccc(C)cn3c2CN(C)C(=O)c2ccc(N(C)C)cc2)cc1 [Example 22, 4-Dimethylamino-N-methyl-N-(6-methyl-2-p-tolyl-imidazo[1,2-a]pyridin-3-ylmethyl)-benzamide]	9.4	0.0	89.45	84.8	62.3
Cc1ccc(-c2nc3ccc(C)cn3c2CNC(=O)c2ccccn2)cc1 [Example 5, Pyridine-2-carboxylic acid (6-methyl-2-p-tolyl-imidazo[1,2-a]pyridin-3-ylmethyl)-amide]	95.3	28.4	90.40	99.8	75.5
Cc1ccc(-c2nc3ccc(C)cn3c2CN(C)C(=O)c2ncc(F)cc2F)cc1 [Example 33, 3,5-Difluoro-pyridine-2-carboxylic acid methyl-(6-methyl-2-p-tolyl-imidazo[1,2-a]pyridin-3-ylmethyl)-amide]	74.0	0.0	35.02	98.4	37.3
Cc1ccc(-c2nc3ccc(C)cn3c2CNC(=O)c2cnc(C)cn2)cc1 [Example 61, 5-Methyl-pyrazine-2-carboxylic acid (6-methyl-2-p-tolyl-imidazo[1,2-a]pyridin-3-ylmethyl)-amide]	98.5	48.3	90.55	100.0	85.4
Cc1ccc(-c2nc3ccc(C)cn3c2CNC(=O)c2csnn2)cc1 [Example 70, [1,2,3]Thiadiazole-4-carboxylic acid (6-methyl-2-p-tolyl-imidazo[1,2-a]pyridin-3-ylmethyl)-amide]	97.7	25.6	90.77	100.4	79.7
Cc1ccc(-c2nc3ccc(C)cn3c2CNC(=O)Cc2cccs2)cc1 [Example 71, N-(6-Methyl-2-p-tolyl-imidazo[1,2-a]pyridin-3-ylmethyl)-2-thiophen-2-yl-acetamide]	67.8	7.2	94.08	96.4	21.9
Cc1ccc(-c2nc3ccc(C)cn3c2CN(C)C(=O)C2CC2)cc1 [Example 24, Cyclopropanecarboxylic acid methyl-(6-methyl-2-p-tolyl-imidazo[1,2-a]pyridin-3-ylmethyl)-amide]	14.4	0.0	80.71	99.8	75.2
Cc1ccc(-c2nc3ccc(C)cn3c2CNC(=O)c2ccc([N+](=O)[O-])o2)cc1 [Example 14, 5-Nitro-furan-2-carboxylic acid (6-methyl-2-p-tolyl-imidazo[1,2-a]pyridin-3-ylmethyl)-amide]	92.2	26.2	89.82	99.4	51.4
Cc1ccc(-c2nc3ccc(C)cn3c2CNC(=O)c2sccc2C)cc1 [Example 16, 3-Methyl-thiophene-2-carboxylic acid (6-methyl-2-p-tolyl-imidazo[1,2-a]pyridin-3-ylmethyl)-amide]	52.9	0.0	82.38	95.4	2.2
Cc1ccc(-c2nc3ccc(C)cn3c2CNC(=O)c2occc2C)cc1 [Example 15, 3-Methyl-furan-2-carboxylic acid (6-methyl-2-p-tolyl-imidazo[1,2-a]pyridin-3-ylmethyl)-amide]	41.6	0.0	80.12	74.5	0.0
Cc1ccc(-c2nc3ccc(C)cn3c2CN(C)C(=O)c2cccs2)cc1 [Example 29, Thiophene-2-carboxylic acid methyl-(6-methyl-2-p-tolyl-imidazo[1,2-a]pyridin-3-ylmethyl)-amide]	90.2	25.0	93.98	99.7	84.9
CC(=O)c1ccc(C(=O)NCc2c(-c3ccc(C)cc3)nc3ccc(C)cn23)cc1 [Example 12, 4-Acetyl-N-(6-methyl-2-p-tolyl-imidazo[1,2-a]pyridin-3-ylmethyl)-benzamide]	19.0	0.0	56.84	73.7	18.6
Cc1ccc(-c2nc3ccc(C)cn3c2CNC(=O)c2cscn2)cc1 [Example 81, Thiazole-4-carboxylic acid (6-methyl-2-p-tolyl-imidazo[1,2-a]pyridin-3-ylmethyl)-amide]	94.3	1.5	84.31	99.6	69.9
Cc1ccc(-c2nc3ccc(C)cn3c2CN(C)C(=O)c2ccnc(Cl)c2)cc1 [Example 34, 2-Chloro-N-methyl-N-(6-methyl-2-p-tolyl-imidazo[1,2-a]pyridin-3-ylmethyl)-isonicotinamide]	85.0	0.0	92.98	98.8	39.6
